According to patent publication US5308581A, “Substance of an optical fluorescence measuring arrangement for measuring the pH of a sample and optical sensor with such an indicator substance” (AVL Medical Instruments AG, priority 1990, dated 1994):
Like-named read-outs stand apart in the source and are kept apart here.

Assays:
Type in all cases: physicochemical
[1] = acid dissociation of the indicator in its electronic ground state (pKa); conditions: for pKa acidic form (AH) in ground state: indicator acid AH; for pKa acidic form (BH^+) in ground state: indicator base, conjugate acid BH^+
Excerpt: Ka acid constant (dissociation equilibrium
pK value of an acid or conjugate acid
The pKa value of the electronically non-excited acid (AH or BH^+) is in the relevant measuring range.

[2] = acid dissociation of the indicator in its electronically excited state (pKa *); conditions: for pKa * value in the excited state exceeds the pKa value in the ground state by: increase
Excerpt: S and .tau.B of the acidic forms (AH*, BH^+*) and basic forms (S^-*, B*) of the indicator differ from each other. In both fundamental instances the measured luminescence decay time .tau. is a function of the luminescence decay times .tau.B and .tau.S, their weighting depending on the pH prevailing in the sample.
The pKa * value of the electronically excited acid (AH* or BH^+*) is in the relevant measuring range.

[3] = luminescence decay time of the acidic and basic forms of the indicator in the excited state; conditions: for luminescence decay time excited state .tau.(AH*): excited acid AH*; for luminescence decay time excited state .tau.(A-*): excited conjugate base A^-*; for luminescence decay time excited state .tau.(B*): excited base B*; for luminescence decay time excited state .tau.(BH+*): excited conjugate acid BH^+*
Description: .tau. lifetime of the excited state (luminescence
(§1) In an embodiment of the invention referring to item 1, the indicator is immobilized on a solid substrate, for example, and is brought into contact with the sample. […] After separation of the exciting light by means of a cut-off filter, fluorescence is detected over a broad band of the spectrum (for instance, by means of a photomultiplier or a pin photodiode) and decay time is measured electronically. As dissociation takes place in the ground state, both the absorption spectrum and the fluorescence spectrum are modified, which will have no negative effect on the measurement, however, due to the broad-band character of excitation and detection, or rather, due to the choice of the excitation wavelength in the overlap region of the absorption spectra and the broad detection band. Via a stored calibrating function the recorded decay times may be converted into pH values by a computer.
(§2) In an embodiment of the invention referring to item 2, a suitable indicator is immobilized on a solid substrate, and is dipped into the sample. Excitation takes place monochromatically with the use of a short-time light source (e.g., a coaxial flashlamp) and a color filter tuned to the absorption wavelength of the indicator (e.g., an interference filter). After separation of the exciting light by means of a cut-off filter, emission is detected over a broad band of the spectrum (for instance, by means of a photomultiplier or a pin photodiode). The pH value again is determined from the measured decay time via a stored calibrating function.

[4] = excitation/emission maxima of the acidic and basic forms of the indicator; conditions: for emission maximum acidic form / excitation maximum acidic form: AH; for emission maximum conjugate basic form / excitation maximum conjugate basic form: A^-; for emission maximum basic form / excitation maximum basic form: B; for emission maximum conjugate acidic form / excitation maximum conjugate acidic form: BH^+
Description: as §1, §2

[5] = pH measuring range of the indicator via luminescence decay time
Description: as §1, §2

[6] = excited vs ground state, decrease

Structure (SMILES) | pKa acidic form (AH) in ground state [1] | pKa * value in the excited state is lower than the pKa value in the ground state by [2, 6] | luminescence decay time excited state .tau.(AH*) [3] [ns] | luminescence decay time excited state .tau.(A-*) [3] [ns] | emission maximum acidic form [4] [nm] | excitation maximum acidic form [4] [nm] | emission maximum conjugate basic form [4] [nm] | excitation maximum conjugate basic form [4] [nm] | measuring range [5] | pKa acidic form (BH^+) in ground state [1] | pKa * value in the excited state exceeds the pKa value in the ground state by ([2]; excited vs ground state) [units] | luminescence decay time excited state .tau.(B*) [3] [ns] | luminescence decay time excited state .tau.(BH+*) [3] [ns] | emission maximum basic form [4] [nm] | excitation maximum basic form [4] [nm] | emission maximum conjugate acidic form [4] [nm] | excitation maximum conjugate acidic form [4] [nm] | pKa * value in the excited state is lower than the pKa value in the ground state by [2]
O=Cc1ccccc1O [Salicylaldehyde] | ~8.5 | approx. 6.5 units | < 1 | ~3 | 525 | 327 | 400 | 380 | 7-10 pH |  |  |  |  |  |  |  |  | 
O=c1c2ccccc2[nH]c2ccccc12 [9(10H)-acridone] |  |  |  |  |  |  |  |  | 0.5-2.5 pH | 0.02 | 1.7 | 26 | 15 | 440 | 383 | 456 | 399 | 
O=C(O)Cc1c[nH]c2ccccc12 [3-indolylacetic acid] | ~3 |  | 2.5 | 9.0 | 340 | 278 | 340 | 285 | 2-4 pH |  |  |  |  |  |  |  |  | approx. 2 units
Oc1ccc2ccccc2c1 [Example 2-naphthol, 2-naphthol] | ~9.8 | 7 units | 9.0 | 4.8 | 356 | 328 | 410 | 348 | 1.2-4.3 pH |  |  |  |  |  |  |  |  | 
c1ccc2nc3ccccc3cc2c1 [Acridine] |  |  |  |  |  |  |  |  | 4.0-7.0 pH | 5.45 | 5.25 | 14 | 33 | 430 | 356 | 475 | 356 | 
